From patent publication US12257287B2, “Glucagon-derived peptide and use thereof” (Tianjin Institute of Pharmaceutical Research Co., Ltd., priority 2018, dated 2025)
≈ marks a conversion by molar mass, not a printed value. Numbered stars: 1 amine (or outer) side, 2 acyl side, 3 side chain; on linkers, the order of the positions; unused ones are H or OH. Square brackets hold non-standard residues; d marks the D form. Side chains are listed from the residue outwards. Peptide text beside a SMILES is read from it. * marks the point of attachment. C18 diacid = O=C(O)CCCCCCCCCCCCCCCCC(=O)*; γGlu = O=C(O)[C@H](CCC(=O)[*:2])N[*:1]; AEEA = NCCOCCOCC(=O)O; Aib = CC(C)(N)C(=O)O

How the values were obtained:
GC receptor = target: T1, GC receptor (Homo sapiens, UniProt P47871); experiment: GC receptor mediated cAMP production in vitro (HEK293 cells transfected with GC receptor); format: cell-based; settings: 20 min at 37° C., read-out: GCGR (nM EC50)
T1 construct: expressed in transfected cells; host or cells: HEK293 cells
Source text: The medium was removed, the cells were lysed, and cAMP values were detected referring to the detection method described for the assay kit.

physchem = format: physicochemical
Protocol: 2 mg of the compound was weighed, dissolved in 1 ml of phosphate buffer solutions with different concentrations (10, 20 mM) and different pH values (7.5, 8.0), and centrifuged, and supernatant was taken. The peak area was measured by HPLC (chromatographic column: Aeris widepore XB-C18 3.6 mm, 4.6×150 mm; mobile phase: A: 0.05% TFA, B: 95% acetonitrile; detection wavelength: 214 nm) and compared with a corresponding sample standard solution, and the relative concentration of the test sample solution is calculated.

[1] = pH 7.5, Solubility, pH 7.5, 10 mM phosphate buffer
[2] = pH 7.5, Solubility, pH 7.5, 20 mM phosphate buffer
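Throughout, for Solubility: compound added at 2 mg per mL of phosphate buffer, with the dissolved amount determined in the supernatant.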

T1 sequence (P47871 26-477): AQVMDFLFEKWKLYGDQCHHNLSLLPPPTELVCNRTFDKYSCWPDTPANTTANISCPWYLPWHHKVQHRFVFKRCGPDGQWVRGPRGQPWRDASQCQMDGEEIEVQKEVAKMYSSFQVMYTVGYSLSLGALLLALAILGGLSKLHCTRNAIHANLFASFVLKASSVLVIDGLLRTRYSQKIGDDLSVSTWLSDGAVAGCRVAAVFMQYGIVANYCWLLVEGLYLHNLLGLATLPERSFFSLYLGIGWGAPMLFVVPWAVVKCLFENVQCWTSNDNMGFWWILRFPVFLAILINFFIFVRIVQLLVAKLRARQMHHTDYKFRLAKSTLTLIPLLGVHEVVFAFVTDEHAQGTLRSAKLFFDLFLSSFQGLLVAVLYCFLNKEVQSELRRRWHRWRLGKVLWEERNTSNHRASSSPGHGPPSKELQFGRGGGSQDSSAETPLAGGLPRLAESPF

SMILES	EC50 (GC receptor) [nM]	solubility (physchem; [1]) [µg/mL]	solubility (physchem; [2]) [µg/mL]	solubility (physchem; pH 8, Solubility, pH 8.0, 10 mM phosphate buffer) [µg/mL]	solubility (physchem; pH 8, Solubility, pH 8.0, 20 mM phosphate buffer) [µg/mL]
CC(C)C[C@H](NC(=O)[C@H](Cc1c[nH]c2ccccc12)NC(=O)[C@H](CCC(=O)O)NC(=O)[C@@H](NC(=O)[C@H](Cc1ccccc1)NC(=O)[C@H](CCC(=O)O)NC(=O)[C@H](CCCCNC(=O)COCCOCCNC(=O)COCCOCCNC(=O)CC[C@H](NC(=O)CCCCCCCCCCCCCCCCC(=O)O)C(=O)O)NC(=O)[C@H](C)NC(=O)[C@H](CCCCN)NC(=O)[C@H](CCCNC(=N)N)NC(=O)[C@H](CCC(=O)O)NC(=O)[C@H](CC(=O)O)NC(=O)[C@H](CC(C)C)NC(=O)[C@H](Cc1ccc(O)cc1)NC(=O)[C@H](CCCCN)NC(=O)[C@H](CO)NC(=O)[C@H](Cc1ccc(O)cc1)NC(=O)[C@H](CC(=O)O)NC(=O)[C@H](CO)NC(=O)[C@@H](NC(=O)[C@H](Cc1ccccc1)NC(=O)[C@@H](NC(=O)CNC(=O)[C@H](CCC(N)=O)NC(=O)C(C)(C)NC(=O)[C@@H](N)Cc1c[nH]cn1)[C@@H](C)O)[C@@H](C)O)C(C)C)C(=O)N[C@@H](CCC(=O)O)C(=O)N[C@@H](C)C(=O)NCC(=O)NCC(=O)N1CCC[C@H]1C(=O)N[C@@H](CO)C(=O)N[C@@H](CO)C(=O)NCC(N)=O [Compound 42] (H-H[Aib]QGTFTSDYSKYLDERKAK([AEEA-AEEA-γGlu-C18 diacid])EFVEWLEAGGPSSG-NH2; N-terminus assumed)	0.024	1720 (≈ 380 µM)	1510 (≈ 334 µM)	> 2000	> 2000
CCCCCCCCCCCCCCCC(=O)N[C@@H](CCC(=O)N[C@@H](CCC(=O)NCCCC[C@H](NC(=O)[C@H](C)NC(=O)[C@H](CCCCN)NC(=O)[C@H](CCCNC(=N)N)NC(=O)[C@H](CCC(=O)O)NC(=O)[C@H](CC(=O)O)NC(=O)[C@H](CC(C)C)NC(=O)[C@H](Cc1ccc(O)cc1)NC(=O)[C@H](CCCCN)NC(=O)[C@H](CO)NC(=O)[C@H](Cc1ccc(O)cc1)NC(=O)[C@H](CC(=O)O)NC(=O)[C@H](CO)NC(=O)[C@@H](NC(=O)[C@H](Cc1ccccc1)NC(=O)[C@@H](NC(=O)CNC(=O)[C@H](CCC(N)=O)NC(=O)C(C)(C)NC(=O)[C@@H](N)Cc1c[nH]cn1)[C@@H](C)O)[C@@H](C)O)C(=O)N[C@@H](CCC(=O)O)C(=O)N[C@@H](Cc1ccccc1)C(=O)N[C@H](C(=O)N[C@@H](CCC(=O)O)C(=O)N[C@@H](Cc1c[nH]c2ccccc12)C(=O)N[C@@H](CC(C)C)C(=O)N[C@@H](CCC(=O)O)C(=O)NCC(=O)NCC(=O)N1CCC[C@H]1C(=O)N[C@@H](CO)C(=O)N[C@@H](CO)C(=O)NCC(N)=O)C(C)C)C(=O)O)C(=O)O [Compound 69] (HELM PEPTIDE1{H.[Aib].Q.G.T.F.T.S.D.Y.S.K.Y.L.D.E.R.K.A.K.E.F.V.E.W.L.E.G.G.P.S.S.G.[am]}|PEPTIDE2{[CCCCCCCCCCCCCCCC(=O)[*:2]].[gGlu].[gGlu]}$PEPTIDE1,PEPTIDE2,20:R3-3:R2$$$V2.0; N-terminus assumed)	0.261	> 2000	> 2000	–	–
